From patent publication US10226451B2, “Substituted bicyclic compounds as bromodomain inhibitors” (ZENITH EPIGENETICS LTD, priority 2013, dated 2019)

Tests used:
[1] = system: hApoA-I mRNA in Huh7 cells; experiment: Up-regulation of hApoA-1 mRNA transcription in Huh7 cells; assay type: cell-based, Human; conditions: EC170, Huh7 cells, 48 h
Procedure: In this example, hApoA-I mRNA in tissue culture cells was quantitated to measure the transcriptional up-regulation of hApoA-I when treated with a compound of the present disclosure.
Huh7 cells (2.5×10^5 per well) were plated in a 96-well plate using 100 μL DMEM per well, (Gibco DMEM supplemented with penicillin/streptomycin and 10% FBS), 72 h before the addition of the compound. The cells are treated with increasing concentrations of the compound or DMSO (0.1%), and incubated at 37° C., 5% CO2 for 48 h. Spent media was removed from the Huh-7 cells and placed on ice for immediate use with the “LDH cytotoxicity assay Kit II” from Abcam. The cells remaining in the plate were rinsed with 100 μL PBS. Cells were harvested using the mRNA Catcher PLUS kit according to manufacturer's instructions. The eluted mRNA was then used in a one-step quantitative real-time PCR reaction, using components of the RNA UltraSense™ One-Step Kit (Life Technologies) together with Applied Biosystems TaqMan® primer-probes for hApoA-I and Cyclophilin. Real-time PCR plates were run on a ViiA™7 real time PCR machine (Applied Biosystems), data was analyzed, normalizing the Ct values for hApoA-1 to an internal control, prior to determining the fold induction of each unknown sample, relative to the control.

[2] = system: hIL-17 mRNA in human peripheral blood mononuclear cells; experiment: Inhibition of hIL-17 mRNA transcription in OKT3-stimulated PBMC; assay type: cell-based; conditions: OKT3 antibody, 6 h, read-out: IL-17 activity
Procedure: In this example, hIL-17 mRNA in human peripheral blood mononuclear cells were quantitated to measure the transcriptional inhibition of hIL-17 when treated with a compound of the present disclosure.
Human peripheral blood mononuclear cells were plated (2.0×10^5 cells per well) in a 96-well plate in 45 μL OpTimizer T Cell expansion media (Life Technologies) containing 20 ng/ml IL-2 and penicillin/streptomycin. The cells were treated with increasing concentrations of the test compound or DMSO (0.1%), and incubated at 37° C., 5% CO2 for 1 h before addition of 10× stock OKT3 antibody at 10 ug/ml in media. Triplicate wells were used for each concentration. Cells were incubated at 37° C., 5% CO2 for 6 h before the cells were harvested. At time of harvest, cells were pelleted by centrifugation at 800 rpm for 5 min. Cells were harvested using the mRNA Catcher PLUS kit according to manufacturer's instructions. The eluted mRNA was then used in a one-step quantitative real-time PCR reaction, using components of the RNA UltraSense™ One-Step Kit (Life Technologies) together with Applied Biosystems TaqMan® primer-probes for hIL-17 and Cyclophilin. Real-time PCR plates were run on a ViiA™7 real time PCR machine (Applied Biosystems), data was analyzed, normalizing the Ct values for hIL-17 to an internal control, prior to determining the fold induction of each unknown sample, relative to the control.

[3] = system: c-myc in Human AML MV4-11 cells; experiment: Inhibition of c-MYC expression (mRNA, real-time PCR) in MV4-11 cells; assay type: cell-based; conditions: 3 h, mRNA by real-time PCR
Summary of the method: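 Cells at 2.5×10^4 per well in IMDM/10% FBS were treated with rising compound concentrations or 0.1% DMSO for 3 h at 37° C., in triplicate. cMYC mRNA was measured by one-step TaqMan qRT-PCR, normalised to cyclophilin, and expressed as fold expression relative to control.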

[4] = biological target: T1, Brd4 bromodomain 1 (BRD4(1)) (Homo sapiens, UniProt O60885); experiment: Inhibition of tetra-acetylated histone H4 binding to Brd4 bromodomain 1 (HTRF/FRET); conditions: tetra-acetylated histone H4 peptide, His-tagged bromodomain 200 nM, 2 h
T1 construct: made in house; host or cells: E. coli BL21(DE3)
Summary of the method: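 N-terminally His-tagged bromodomain (200 nM), expressed in E. coli and purified by Ni affinity and size exclusion, was incubated with biotinylated tetra-acetylated H4 peptide (25-50 nM), Eu-cryptate streptavidin and XL665 anti-His in HEPES pH 7.4 buffer with 0.2% DMSO. Reactions ran 2 h at room temperature. IC50 came from the 665/620 nm fluorescence decrease.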

Human AML MV-4-11 cells = experiment: Inhibition of cell proliferation in MV4-11 cells (CellTiter Aqueous One); assay type: cell-based; conditions: 72 h
Summary of the method: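 MV4-11 cells at 5×10^4/well in IMDM with 10% FBS were exposed to increasing compound concentrations or 0.1% DMSO, in triplicate, for 72 h at 37 °C. A further 3-4 h with CellTiter Aqueous One reagent followed. A490, blank-corrected and expressed relative to DMSO, gave IC50.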

hIL-6 mRNA in U937 cells = experiment: Inhibition of hIL-6 mRNA transcription in LPS-stimulated U937 cells; assay type: cell-based; conditions: Homo sapiens, U-937, PMA-differentiated U937 cells, LPS 1 ug/mL, 3 h, read-out: IL-6 activity
Summary of the method: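 U937 cells were differentiated to macrophages with 60 ng/mL PMA for 3 days, pretreated 1 h with compound in 0.1% DMSO, then stimulated with 1 ug/mL E. coli LPS for 3 h at 37° C. hIL-6 mRNA was quantified by one-step TaqMan RT-qPCR, normalized to cyclophilin, as fold expression versus control.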

IC50 [2] [nM] | IC50 [3] [nM] | IC50 [4] [nM] | IC50 (Human AML MV-4-11 cells) [nM] | IC50 (hIL-6 mRNA in U937 cells) [nM] | SMILES | ApoA-1 activity [1]
300 to 3000 | ≤ 300 | ≤ 300 | 300 to 3000 | ≤ 300 | Cc1ncccc1-c1cc(-c2c(C)noc2C)cc2[nH]c(=O)n(C)c12 [Example Compound 4, 5-(3,5-dimethylisoxazol-4-yl)-1-methyl-7-(2-methylpyridin-3-yl)-1H-benzo[d]imidazol-2(3H)-one] | +++ (EC170 value less than or equal to 0.3 μM were deemed to be highly active (+++))
≤ 300 | 300 to 3000 | ≤ 300 | ≤ 300 | ≤ 300 | Cc1noc(C)c1-c1cc(-c2c(C)noc2C)c2[nH]c(=O)[nH]c2c1 [Example Compound 1, 4,6-bis(3,5-dimethylisoxazol-4-yl)-1H-benzo[d]imidazol-2(3H)-one] | +++ (EC170 value less than or equal to 0.3 μM were deemed to be highly active (+++))
300 to 3000 | ≤ 300 | ≤ 300 | ≤ 300 | ≤ 300 | Cc1nn(C)cc1-c1cc(-c2c(C)noc2C)cc2[nH]c(=O)n(C)c12 [Example Compound 7, 7-(1,3-dimethyl-1H-pyrazol-4-yl)-5-(3,5-dimethylisoxazol-4-yl)-1-methyl-1H-benzo[d]imidazol-2(3H)-one] | +++ (EC170 value less than or equal to 0.3 μM were deemed to be highly active (+++))
300 to 3000 | ≤ 300 | ≤ 300 | 300 to 3000 | 300 to 3000 | COc1ncccc1-c1cc(-c2c(C)noc2C)cc2[nH]c(=O)n(C)c12 [Example Compound 13, 5-(3,5-dimethylisoxazol-4-yl)-7-(2-methoxypyridin-3-yl)-1-methyl-1H-benzo[d]imidazol-2(3H)-one] | +++ (EC170 value less than or equal to 0.3 μM were deemed to be highly active (+++))
